The text below walks through data of article PMC12289066, “Identification of glutathione transferase (GST P1) inhibitors via a high-throughput screening assay and implications as alternative treatment options for breast cancers” (PLOS One, 2025).

The target of this experiment is T1, GST P1-1 (Homo sapiens, UniProt P09211).
T1 construct: purchased Sigma-Aldrich
Nature of the experiment: High-throughput GST P1-1 inhibition assay (384-well screen, CDNB/GSH). Format: biochemical. As to conditions: compound 10 μM; score 0 = negative control (DMSO), 1 = positive control (EA 50 μM); average of duplicate. How it is done:
Each drug compound was added to the respective well at a volume of 80 nL of 10 mM stock solution in DMSO, yielding a final compound concentration of 10 μM and a final DMSO concentration of 0.1%. Each plate’s first and last two columns were used as negative (no compound added – 80 nL per well of DMSO) and positive (80 nL of EA added with a final concentration of 50 μM) controls, respectively. The Gyger Certus Flex dispenser was set up using a freshly prepared 1 mM of GSH and 20 nM of GST P1-1, pH 7.4, in one syringe and 8 mM CDNB solution in pure ethanol in the other syringe. Into each well 80 μL of GST-GSH solution was dispensed and incubated at 25°C for 20 minutes before the reaction was initiated by the addition of 4 μL of CDNB solution. The plates were incubated for 2 h in the dark at 25°C and then the absorbance was of each well recorded on a BioTek Synergy NEO HTS multimode plate reader (Agilent®) at a wavelength of 340 nm.
The z’factor was calculated for each plate according to Zhang et al.. The Z-factor is a dimensionless, simple statistical characteristic for each HTS assay. This provides a valuable tool for the comparison and assessment of the quality of assays, and can be utilized in assay optimization and validation. For each plate, the concentration of product was normalized by assigning a score of 0 (0%) to the negative control (average of maximal concentration of product measured in the presence of enzyme without any inhibitor) and a score of 1 (100%) was assigned to the positive control (average minimal concentration of product measured in the presence of enzyme with the reference inhibitor, i.e., EA). The experiment was performed in duplicate and the score for each drug compound was calculated as an average ± standard deviation. […] An internal laboratory information management system (LIMS) was used for basic data processing, management, visualization, and statistical hit validation.

T1 sequence (P09211 2-210 limits assumed): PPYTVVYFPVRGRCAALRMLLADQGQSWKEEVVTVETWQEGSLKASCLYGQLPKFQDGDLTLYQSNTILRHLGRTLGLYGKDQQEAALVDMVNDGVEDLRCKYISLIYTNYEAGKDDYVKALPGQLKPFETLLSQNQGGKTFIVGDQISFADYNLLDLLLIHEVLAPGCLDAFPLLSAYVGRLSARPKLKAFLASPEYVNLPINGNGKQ

In the case of `CCCCCC/C=C/C=C\CCCCCCCC(=O)O` [Cis-9,trans-11-Conjugated-linoleic-acid], the Score amounted to 0.796.
The result for `O=C(O)C1(c2ccc(-c3ccc(Cl)c(Cl)c3)c(F)c2)CC1` [CHF5074] reads 0.911; that for `O=S(=O)(O)c1ccc(-c2c3nc(c(-c4ccc(S(=O)(=O)O)cc4)c4ccc([nH]4)c(-c4ccc(S(=O)(=O)O)cc4)c4nc(c(-c5ccc(S(=O)(=O)O)cc5)c5ccc2[nH]5)C=C4)C=C3)cc1` [TPPS4], 0.809; that for `O=C(Nc1cccc(C(F)(F)F)c1)Nc1ccc(Br)cc1-c1nn[nH]n1` [NS-3623], 0.752.
Take `O=C(Nc1ccc(Cl)cc1)Nc1ccc(Cl)c(Cl)c1` [Triclocarban]: the Score is 0.702.
`O=C(NCc1ccc(Oc2ccccc2)cc1)c1nc(-c2cc(Br)c(O)c(Br)c2)no1` [IOWH-032]: the Score turned out to be 0.901.
For the compound `Cc1noc(-c2ccc(CSCCC(=O)O)cc2)c1NC(=O)OC(C)c1ccccc1Cl` (stereo not drawn) [Ki16425], the Score is recorded as 0.710.
Regarding TC-I-2000, the Score is listed as 0.729.
As to `N[C@@H](Cc1cc(-c2ccc(Cl)cc2Cl)cc(CP(=O)(O)O)c1O)C(=O)O` [SDZ-220-040], the Score stood at 0.871.
With `O=C(/C=C/c1ccccc1)NC(NC(=S)Nc1ccc(Cl)cc1)C(Cl)(Cl)Cl` (stereo not drawn) [Sal003], the Score is 0.865.
On to `CC1=C(/C=C/C(=C/C=C/C(C)=C/C(=O)O)c2ccc(C)cc2)C(C)(C)CCC1` [SR-11302], for which the Score is on record as 0.733.
The result for `O=C(O)c1ccc(-c2ccc3cc(O)c(C45CC6CC(CC(C6)C4)C5)cc3c2)cc1` [CD-1530] reads 0.979.
For `CC(C)c1onc(-c2c(Cl)cccc2Cl)c1COc1ccc(/C=C/c2cccc(C(=O)O)c2)c(Cl)c1` [GW 4064], the Score was 0.702.
Under `O=C1C=Cc2cc(Br)ccc2C1=O` [Bonaphthone] stands 0.770.
Under `Cc1c(S(=O)(=O)O)oc2c1C(=O)C(=O)c1c-2ccc2c1CCCC2(C)C` [Tanshinone IIA sulfonate (sodium), Tanshinone IIA sulfonate] stands 0.981; under AS-2034178, 0.982; under `C=CC1=C(C)c2cc3[nH]c(cc4nc(cc5[nH]c(cc1n2)c(C)c5CCC(=O)O)C(CCC(=O)O)=C4C)c(C)c3C=C` [Protoporphyrin IX], 0.914.
Under `CC1(C)CC[C@]2(NC(=O)C(C)(F)F)CC[C@]3(C)[C@H](C(=O)C=C4[C@@]5(C)C=C(C#N)C(=O)C(C)(C)[C@@H]5CC[C@]43C)[C@@H]2C1` [RTA-408] stands 0.807.
`O=c1c(-c2ccccc2)c1-c1ccccc1` [Diphencyprone]: the Score is 0.744.
In the case of `O=C(O)C(Cc1ccccc1[N+](=O)[O-])=NNc1nc(-c2ccc(Cl)c(Cl)c2)cs1` (mixture of isomers) [4EGI-1], the Score is given as 0.730.
Regarding `CC(C)c1cccc2c(-c3ccccc3)cc(-c3ccc(-c4ccc(C(=O)O)cc4)[nH]3)nc12` [ER-50891], the Score was found to be 0.927.
Turning to `CC[C@@H](C(=O)[C@@H](C)[C@@H](O)[C@H](C)CCc1ccc(C)c(O)c1C(=O)O)[C@H]1O[C@](CC)([C@H]2CC[C@](O)(CC)[C@H](C)O2)C[C@@H]1C` [Lasalocid], the Score came to 0.863.
Under `COc1cc(C[C@H](C)[C@H](C)Cc2ccc3c(c2)OCO3)ccc1O` [Macelignan] stands 0.803; under `O=C(O)C(=O)c1cn(Cc2ccccc2)c2ccc(-c3ccc(OC(F)(F)F)cc3)cc12` [Tiplaxtinin], 0.836.
With `O=C1OC2(c3ccccc31)c1cc(I)c(O)c(I)c1Oc1c2cc(I)c(O)c1I` [Erythrosine], the Score was found to be 0.828.
The result for `CC(C)=CCC/C(C)=C/CC/C(C)=C/CSc1ccccc1C(=O)O` [Salirasib] reads 0.717; that for `C=CC(=O)c1ccc2ccccc2c1` [JAK3-inhibitor-V], 0.817; that for `CC#C[C@@H](CC(=O)[O-])c1ccc(OCc2cccc(-c3ccc(C(F)(F)F)cc3)c2)cc1.CC#C[C@@H](CC(=O)[O-])c1ccc(OCc2cccc(-c3ccc(C(F)(F)F)cc3)c2)cc1.O.[Ca+2]` [AMG 837 (calcium hydrate)], 0.783.
On to `NC[C@@](O)(c1ccc(Cl)cc1)c1ccc(-c2cn[nH]c2)cc1` [AT13148], for which the Score was 0.738.
As for `O=C1OC2(c3cc(I)c(O)c(I)c3Oc3c2cc(I)c(O)c3I)c2c(Cl)c(Cl)c(Cl)c(Cl)c21` [Rse-bengal], the Score stood at 0.996.
With `COc1cc(C(=O)NS(=O)(=O)c2ccccc2C)ccc1Cc1cn(C)c2ccc(NC(=O)OC3CCCC3)cc12` [Zafirlukast], the Score was determined as 0.801.
In the case of `Cc1cc(F)c(Nc2ncnc3cc(OCc4ccccc4)ccc23)cc1O.Cl` [ZM323881 (hydrochloride)], the Score was 0.946.
Take `Oc1cccc(-c2c3nc(c(-c4cccc(O)c4)c4ccc([nH]4)c(-c4cccc(O)c4)c4nc(c(-c5cccc(O)c5)c5ccc2[nH]5)CC4)C=C3)c1` [Temoporfin]: the Score turned out to be 0.699.
Under `O=C([O-])c1ccccc1-c1c2cc(Br)c(=O)cc-2oc2[c]([Hg+])c([O-])c(Br)cc12.[Na+].[Na+].[OH-]` [Merbromin] stands 0.993; under `CCOc1c2c(c(OCC)c3ccccc13)C(=O)N(c1ccc(CC(=O)NS(=O)(=O)c3ccccc3)cc1)C2` [GW627368], 0.854; under `CC(C)(C)c1ccc(CN2CCN(C(c3ccccc3)c3ccc(Cl)cc3)CC2)cc1` (stereo not drawn) [Buclizine], 0.694.
Regarding `O=C1c2c(O)cccc2Cc2cccc(O)c21` [Anthralin], the Score is on record as 0.694.
As to `O=[N+]([O-])/C=C/c1ccc2c(c1)OCO2` [MNS], the Score is 0.850.
The result for `Cc1cc(-c2ccc(/N=N/c3ccc4c(S(=O)(=O)O)cc(S(=O)(=O)O)c(N)c4c3O)c(C)c2)ccc1/N=N/c1ccc2c(S(=O)(=O)O)cc(S(=O)(=O)O)c(N)c2c1O` [Evans Blue] reads 0.783; that for `Oc1ccc2ccccc2c1SSc1c(O)ccc2ccccc12` [IPA-3], 0.881; that for `CC1=NN(c2ccccc2)C(=O)C1` [Edaravone], 0.958.
Regarding `CC/C=C\C/C=C\C/C=C\C/C=C\C/C=C\C/C=C\CCC(=O)O` [Docosahexaenoic Acid], the Score came out at 0.821.
Take `Cc1cc(=O)n(-c2ccccc2)[nH]1` [N-demethylantipyrine]: the Score is given as 1.019.
Under `Oc1c(Cl)cc(Cl)cc1Sc1cc(Cl)cc(Cl)c1O` [Bithionol] stands 1.007; under `COc1cc(-c2ccc(N=Nc3ccc4c(S(=O)(=O)[O-])cc(S(=O)(=O)[O-])c(N)c4c3O)c(OC)c2)ccc1N=Nc1ccc2c(S(=O)(=O)[O-])cc(S(=O)(=O)[O-])c(N)c2c1O.[Na+].[Na+].[Na+].[Na+]` [Chicago sky blue 6B], 0.863.
As to `CCCCCCCCCCCCc1ccc(S(=O)(=O)Nc2nncs2)cc1` [PHT-427], the Score turned out to be 0.696.
With `CCOC(=O)Nc1cc(-c2ccc(C)c(NS(C)(=O)=O)c2)nn2c(C)nnc12` [Bromosporine], the Score is 0.801.
Under `O=C1C(CC[S+]([O-])c2ccccc2)C(=O)N(c2ccccc2)N1c1ccccc1` (stereo not drawn) [Sulfinpyrazone] stands 0.823; under `CC(C)(c1ccc(OCC2CO2)cc1)c1ccc(OCC2CO2)cc1` (stereo not drawn) [BADGE], 0.715; under `Oc1ccc(Nc2nc(-c3ccc(Cl)cc3)cs2)cc1` [SKI II], 0.694.
Under `CCN(CC)c1ccc(C(=C2C=CC(=[N+](CC)CC)C=C2)c2ccccc2)cc1` [Brilliant-green] stands 0.783; under `CC1=C(CCC(=O)O)c2cc3[nH]c(cc4nc(cc5[nH]c(cc1n2)c(C)c5C(C)O)C(C)=C4C(C)O)c(C)c3CCC(=O)O` (stereo not drawn) [Hematoporphyrin], 0.758.
Under `O=C1OC2(c3cc(I)c(O)c(I)c3Oc3c2cc(I)c(O)c3I)c2c(Cl)c(Cl)c(Cl)c(Cl)c21` [Rose-bengal-lactone] stands 0.937; under `CC1(C)CCC(C)(C)c2cc(Cn3cccn3)c(/C=C/c3ccc(C(=O)O)cc3)cc21` [Palovarotene], 0.763.
